d = 2'-deoxy (DNA); r = 2'-OH (RNA)
How the values were obtained:
[1] = test system: MC38 cells tumor graft; test: Mouse subcutaneous tumor graft model of colorectal cancer MC38 cells; format: in vivo, C57BL/6 mice; conditions: STP500 2 mg/kg i.v. Q2D, siMD8 1 mg/kg i.v. Q2D, Sorafenib 30 mg/kg p.o. QD
Text: Based on the data from previous in-vitro experiments, two siRNAs (MD8-21-hm5# and TF1-25-hm5# in this example) were mixed at a mass ratio of 1/1, and encapsulated the mixture into the HKP(+H) (histidine-lysine polymer) carrier through patented PNP technology to prepare the nanoparticle formulation (the nano drug formulation STP500 prepared in Example 8). The tumor growth inhibitory activity of the candidate siRNA sequence was validated by a mouse tumor xenograft model (colorectal cancer cells MC38).
C57BL/6 mice were each inoculated subcutaneously with 1×10^6 MC38 cells per mouse, and randomized groups when the mean tumor volume reached about 100 mm^3. The dosing regimen was as follows: for STP500, 2 mg/kg, intravenously administered (i.v.) via the tail vein, every 2 days (Q2D); for Small nucleic acid monotherapy MD8 (MyD88 siRNA, also known as siMyD88), 1 mg/kg, intravenously administered (i.v.) via the tail vein, every 2 days (Q2D); and for the positive control group (Sorafenib), 30 mg/kg, intragastrically administered p.o., every day (QD). After the first dose, the weight and tumor volume of the mice were recorded every 2 days, and the tumor volume was calculated by V=0.5×(Dmax×Dmin^2), where Dmax refers to the longest diameter of the tumor, and Dmin refers to the shortest diameter of the tumor. […] TGItw (percentage change in tumor weight) was calculated by: […]

[2] = test system: MyD88 gene (mRNA); test: In vitro screening of MyD88 siRNA: MyD88 mRNA silencing by RT-PCR; format: cell-based, human; conditions: 100 nM siRNA; for target gene silencing effect in colorectal cells: lipo2000, 20-24 h
Description: Some cell lines screened out in Example 2 were used for primary siRNA screening, including a breast cancer cell line (MDA-MB-231), a neuroglioma cell line (U87-MG), a human brain glioma cell line (T98G), a human colorectal cancer epithelial cell line (DLD-1) and a human colon cancer cell line (RKO). Specifically, the MyD88 siRNA sequence in Table 1 was transfected into the above five cells by lipo2000, and the transfection concentration was 100 nM (calculated by siRNA). After transfection for 20-24 h, the total RNA of the cells was extracted, and the mRNA expression level of the target gene MyD88 was detected by RT-PCR technology. […] The three specifical sequences are MD8-21-hm3# (NTS00025-21-hm3# in FIG. 3), MD8-21-hm4# (NTS00025-21-hm4# in FIG. 3) and MD8-21-hm5# (NTS00025-21-hm5# in FIG. 3).

[3] = test system: MyD88 gene (mRNA); test: EC50 of MyD88 mRNA knockdown in human-derived cell lines; format: cell-based
Description: Then, for these candidate siRNA sequences, multiple concentration gradients were set in human-derived cell lines and mouse-derived cell lines respectively for cell transfection, and their EC50 values (half-maximal effective concentration) were obtained. […] In the mouse-derived cell lines, EC50<10 nM only occurs for MD8-21-hm5# in mouse prostate cancer (RM-1) cells and colorectal cancer (MC38) cells as well as MD8-21-hm4# in colorectal cancer (MC38) cells. Therefore, based on the above data, the human-mouse homologous sequence MD8-21-hm5# is preferably used for pharmacodynamic evaluation of animal models in vivo.

[4] = test system: MKN45 cells tumor xenograft; test: Mouse subcutaneous tumor xenograft model of gastric cancer MKN45 cells; format: in vivo, BALB/c-Nude mice
Description: Next, another tumor graft model was established to further validate the pharmacodynamic evaluation of candidate drug on the growth of mouse tumor xenograft of human gastric cancer MKN45 cells. The nano drug formulation was prepared by the method described above. MKN45 subcutaneous tumor-bearing mice were modeled as follows: BALB/c-Nude mice were each inoculated subcutaneously with 5×10^6 MKN45 cells. Randomization was performed when the mean tumor volume reached about 100-120 mm^3. […] After the first dose, the weight and tumor volume of the mice were recorded every 2 days, and the tumor volume was calculated by V=0.5×(Dmax×Dmin^2), where Dmax refers to the longest diameter of the tumor, and Dmin refers to the shortest diameter of the tumor. A tumor volume curve was drawn at the end of the experiment. The mice were euthanized, and tumors were removed and weighed. TGItw (percentage change in tumor weight) was calculated by:
(§1) [formula] • Mean TWtreat: the mean tumor weight of the mice in the treatment group at the end of treatment; • Mean TWvehicle: the Mean tumor weight of mice in the Vehicle group at the end of treatment.

[5] = test system: RM-1 cells tumor graft; test: Mouse subcutaneous tumor graft model of prostate cancer RM-1 cells; format: in vivo, C57BL/6J mice
Description: Next, another tumor graft model was established to further validate the pharmacodynamic evaluation of candidate drug on the growth of mouse tumor graft of mouse prostate cancer RM-1 cells. The nano drug formulation was prepared by the method described above. RM-1 subcutaneous tumor-bearing mice were modeled as follows: C57BL/6J mice were each inoculated subcutaneously with 5×10^6 cells. The mice were grouped on the basis of random numbers when the mean tumor volume reached about 100-120 mm^3. The dosing regimen was as follows: for STP500, 3 mg/kg, intravenously administered (i.v.) via the tail vein, every 2 days (Q2D); for The positive control (docetaxel), 15 mg/kg, intraperitoneally administered (i.p.), every week (QW). After the first dose, the weight and tumor volume of the mice were recorded every 2 days, and the tumor volume was calculated by V=0.5×(Dmax×Dmin^2), where Dmax refers to the longest diameter of the tumor, and Dmin refers to the shortest diameter of the tumor. A tumor volume curve was drawn at the end of the experiment. The mice were euthanized, and tumors were removed and weighed. TGItw (percentage change in Tumor weight) was calculated by:
as §1

[6] = test system: MyD88 protein; test: Western Blot knockdown of target gene protein in cell lines (MyD88); format: cell-based, human and mouse cell lines; conditions: MDA-MB-231, RKO and RM-1 cells; 100 nM and 10 nM, 48 h
[7] = test system: DLD-1 cells; test: In vitro cell migration (wound healing/scratch) test; format: cell-based, human; conditions: 96 h, 100 and 10 nM, dose-dependent
Description: On the day before the initiation of the experiment, a 12-well plate was prepared, a 2-well culture-insert for wound healing (ibidi, 80209) was placed in the center of the culture dish, and cells were inoculated into the 2-well culture-insert at 1×10^4 cells per well and cultured overnight. On the second day, siMyD88 was transfected into the cells at […] and 10 nM, and the transfection experiment was completed. After transfection for 24 h, the 2-well culture-insert for wound healing was gently removed with tweezers (to avoid cell shedding), and the 12-well plate was added with a medium containing 1% serum to continue cell culture. At the same time, a photograph was taken under the microscope as the 0 h cell migration data. The culture was continued for 24 h and 96 h, and the cell migration was recorded under the microscope. The cell migration was determined by comparing the wound distance at the initial scratch (0 h) versus at the later observation points (24 h and 96 h).

[8] = test system: TGF-β1 protein; test: Western Blot knockdown of target gene protein in cell lines (TGF-β1); format: cell-based, human; conditions: RKO cell line; 100 nM and 10 nM, 48 h
Description: The target gene knockdown effects of siRNA sequences on the targets TGF-β1 and MyD88 at the cellular level were evaluated by Western Blot. The procedures were as follows: on The day before the initiation of the experiment, the cells were inoculated in a 6-well plate at 1×10^6 cells per well, and cultured overnight. On the second day, siMyD88 and siTF1 were transfected into the cells at 100 nM and 10 nM respectively. After transfection for 48 h, the cells were collected and transferred to centrifuge tubes. RIPA lysate was added to each tube to extract total cell protein, and then the total cell protein concentration was quantified by a BCA protein quantification method. Western Blot analysis was performed on all protein samples using the following antibodies: MyD88 primary antibody (ab219413, 1:1000), TGF-β1 primary antibody (ab215715, 1:1000), Goat Anti-Rabbit IgG H&L (HRP) (ab205718, 1:10000). After the experiment, the ChemiDoc™ MP Imaging System (BIO-RAD) was used to capture the results.
Western Blot analysis of protein expression in candidate MyD88 siRNA (MD8-21-hm5#) plus TGF-β1 siRNA (TF1-21-h1#) in three cell lines in in-vitro human breast cancer cell line (MDA-MB-231) (FIG. 5A), human colon cancer cell line (RKO) (FIG. 5B) and mouse prostate cancer (RM-1) cells (FIG. 5C).

## CNC(=O)c1cc(Oc2ccc(NC(=O)Nc3ccc(Cl)c(C(F)(F)F)c3)cc2)ccn1 [Sorafenib]
[1]; end of treatment
  Tumor weight, Mean: 0.3571 g
[1]; versus Vehicle
  TGItw (tumor growth inhibition by tumor weight): 12.28%

## MD8-21-hm3#: MyD88 siRNA; sense CAGAGCAAGGAAUGUGACUdTdT (SEQ ID NO: 27), antisense AGUCACAUUCCUUGCUCUGdTdT (SEQ ID NO: 28) (sense CAGAGCAAGGAAUGUGACUTT; antisense AGUCACAUUCCUUGCUCUGTT; sugars from the 5' end r19 d2, backbone not given here)
[2]
  target gene silencing effect in colorectal cells: about 85%

## MD8-21-h5#: MyD88 siRNA; sense GCAUACACACGUUUUUCUAdTdT (SEQ ID NO: 9), antisense UAGAAAAACGUGUGUAUGCdTdT (SEQ ID NO: 10) (sense GCAUACACACGUUUUUCUATT; antisense UAGAAAAACGUGUGUAUGCTT; sugars from the 5' end r19 d2, backbone not given here)
[2]; five human cell lines
  ranking of silencing effect among human-derived sequences: best effect
[3]
  effect in EC50 comparison: relatively good

## O=C1[O][Pt]2([NH][C@@H]3CCCC[C@H]3[NH]2)[O]C1=O [Oxaliplatin]
[4]; after 7 doses, compared with control group
  growth of gastric cancer tumor graft: better tumor inhibition effect
[4]; end of treatment, STP500 3 mg/kg i.v. Q2D, Oxaliplatin 7.5 mg/kg i.p. QD
  Tumor weight, Mean: 0.16 g
[4]; versus Vehicle, STP500 3 mg/kg i.v. Q2D, Oxaliplatin 7.5 mg/kg i.p. QD
  TGItw (tumor growth inhibition by tumor weight): 58%

## CC(=O)O[C@@]12CO[C@@H]1C[C@H](O)[C@@]1(C)C(=O)[C@H](O)C3=C(C)[C@@H](OC(=O)[C@H](O)[C@@H](NC(=O)OC(C)(C)C)c4ccccc4)C[C@@](O)([C@@H](OC(=O)c4ccccc4)[C@H]21)C3(C)C [Docetaxel]
[5]; STP500 3 mg/kg Q2D, Docetaxel 15 mg/kg i.p. QW
  effect on the weight of mice: no significant difference
[5]; after 8 doses, compared with control group
  growth of prostate cancer tumor graft: did not show a tumor-killing effect
[5]; end of treatment, STP500 3 mg/kg i.v. Q2D, Docetaxel 15 mg/kg i.p. QW
  Tumor weight, Mean: 4.72 g
[5]; versus Vehicle, STP500 3 mg/kg i.v. Q2D, Docetaxel 15 mg/kg i.p. QW
  TGItw (tumor growth inhibition by tumor weight): −4%

## MD8-21-hm5#: MyD88 siRNA; sense GAAUGUGACUUCCAGACCAdTdT (SEQ ID NO: 31), antisense UGGUCUGGAAGUCACAUUCdTdT (SEQ ID NO: 32) (sense GAAUGUGACUUCCAGACCATT; antisense UGGUCUGGAAGUCACAUUCTT; sugars from the 5' end r19 d2, backbone not given here)
[2]
  target gene silencing effect in colorectal cells: about 85%
[3]
  effect in EC50 comparison: relatively good
[6]
  knockdown effect on MyD88 protein: obvious knockdown effect
[7]
  inhibitory effect on in vitro migration ability: significant inhibitory effect

## MD8-21-hm4#: MyD88 siRNA; sense GCAAGGAAUGUGACUUCCAdTdT (SEQ ID NO: 29), antisense UGGAAGUCACAUUCCUUGCdTdT (SEQ ID NO: 30) (sense GCAAGGAAUGUGACUUCCATT; antisense UGGAAGUCACAUUCCUUGCTT; sugars from the 5' end r19 d2, backbone not given here)
[2]
  target gene silencing effect in colorectal cells: about 85%

## TF1-21-h1#: TGF-β1 siRNA; sense GCAGAGUACACACAGCAUAdTdT (SEQ ID NO: 37), antisense UAUGCUGUGUGUACUCUGCdTdT (SEQ ID NO: 38) (sense GCAGAGUACACACAGCAUATT; antisense UAUGCUGUGUGUACUCUGCTT; sugars from the 5' end r19 d2, backbone not given here)
[8]
  knockdown effect on TGF-β1 protein: obvious knockdown effect

Source: patent US20250011788A1, “NUCLEIC ACID INTERFERENCE PHARMACEUTICAL COMPOSITION, AND DRUG FOR TREATING COLORECTAL CANCER, GASTRIC CANCER, AND PROSTATE CANCER” (SIRNAOMICS BIOPHARMACEUTICALS (SUZHOU) CO., LTD., priority 2022, published 2025)
